Assay results from publication PMC12095040, “GRK5 is required for adipocyte differentiation through ERK activation” (International Journal of Obesity (2005), 2024).

Target: GRK5 (Homo sapiens, UniProt P34947)
Test: ADP-Glo luminescent kinase assay, casein substrate, […] ATP
Type: biochemical

Chain of GRK5 (P34947 whole entry): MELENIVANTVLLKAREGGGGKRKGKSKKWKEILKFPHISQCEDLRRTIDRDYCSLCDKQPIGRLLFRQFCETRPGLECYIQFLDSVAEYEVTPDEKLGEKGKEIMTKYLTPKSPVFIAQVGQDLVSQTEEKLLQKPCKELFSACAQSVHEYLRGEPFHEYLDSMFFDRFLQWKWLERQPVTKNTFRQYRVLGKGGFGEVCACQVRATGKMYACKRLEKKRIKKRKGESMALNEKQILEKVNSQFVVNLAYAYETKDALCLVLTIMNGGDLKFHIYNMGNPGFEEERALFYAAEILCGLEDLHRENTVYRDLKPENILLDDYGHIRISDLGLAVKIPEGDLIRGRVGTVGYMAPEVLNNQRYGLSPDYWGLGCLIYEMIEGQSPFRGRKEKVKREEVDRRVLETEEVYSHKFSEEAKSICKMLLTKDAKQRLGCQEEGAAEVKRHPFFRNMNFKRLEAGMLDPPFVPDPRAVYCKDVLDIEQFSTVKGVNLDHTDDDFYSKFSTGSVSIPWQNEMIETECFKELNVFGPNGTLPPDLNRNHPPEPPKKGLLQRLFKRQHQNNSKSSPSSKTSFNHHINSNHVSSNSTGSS

For `COc1cc(Nc2cc3c(cn2)nc(-c2ccco2)n3C)cc(OC)c1OC` [GRK5-IN-2], the IC50 was 49.7 µM.
